This note sets out measurements from patent publication US20220340597A1, “HEXAHYDRO-1H-PYRAZINO[1,2-A]PYRAZINE COMPOUNDS FOR THE TREATMENT OF AUTOIMMUNE DISEASE” (Hoffmann-La Roche Inc., priority 2019, published 2022).

The target in one test is T1, human TLR8 (Homo sapiens, UniProt Q9NR97).
T1 sequence (Q9NR97 27-1041): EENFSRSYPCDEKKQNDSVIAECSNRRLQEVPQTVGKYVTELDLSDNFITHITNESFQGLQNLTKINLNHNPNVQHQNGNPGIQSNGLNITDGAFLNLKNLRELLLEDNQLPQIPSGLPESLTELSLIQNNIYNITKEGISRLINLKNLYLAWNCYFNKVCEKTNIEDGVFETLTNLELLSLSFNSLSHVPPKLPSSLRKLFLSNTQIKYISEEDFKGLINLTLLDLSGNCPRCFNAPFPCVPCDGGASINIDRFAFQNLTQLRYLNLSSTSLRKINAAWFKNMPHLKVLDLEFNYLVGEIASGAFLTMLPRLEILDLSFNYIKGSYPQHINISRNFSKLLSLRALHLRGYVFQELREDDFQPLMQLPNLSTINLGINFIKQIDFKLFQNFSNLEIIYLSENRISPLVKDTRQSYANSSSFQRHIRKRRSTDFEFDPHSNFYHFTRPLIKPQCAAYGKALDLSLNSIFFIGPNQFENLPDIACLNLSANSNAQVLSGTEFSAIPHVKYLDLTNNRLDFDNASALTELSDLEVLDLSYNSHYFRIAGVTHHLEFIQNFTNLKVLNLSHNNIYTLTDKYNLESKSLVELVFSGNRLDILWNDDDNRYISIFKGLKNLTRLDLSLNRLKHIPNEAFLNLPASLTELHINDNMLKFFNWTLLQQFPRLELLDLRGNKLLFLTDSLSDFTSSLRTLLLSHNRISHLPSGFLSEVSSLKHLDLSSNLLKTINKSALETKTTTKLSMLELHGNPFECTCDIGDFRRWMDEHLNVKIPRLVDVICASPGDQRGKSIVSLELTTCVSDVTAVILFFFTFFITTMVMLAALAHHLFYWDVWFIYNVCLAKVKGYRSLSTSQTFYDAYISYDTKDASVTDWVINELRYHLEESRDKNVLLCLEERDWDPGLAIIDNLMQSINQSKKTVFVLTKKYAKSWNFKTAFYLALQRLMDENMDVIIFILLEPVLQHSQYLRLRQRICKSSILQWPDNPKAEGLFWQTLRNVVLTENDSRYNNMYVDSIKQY
Kind of test: HEK293-Blue-hTLR-8 cells assay.

Another test addresses T2, human TLR7 (Homo sapiens, UniProt Q9NYK1).
T2 construct: host or cells: HEK293 (HEK-Blue hTLR7)
T2 sequence (Q9NYK1 27-1049): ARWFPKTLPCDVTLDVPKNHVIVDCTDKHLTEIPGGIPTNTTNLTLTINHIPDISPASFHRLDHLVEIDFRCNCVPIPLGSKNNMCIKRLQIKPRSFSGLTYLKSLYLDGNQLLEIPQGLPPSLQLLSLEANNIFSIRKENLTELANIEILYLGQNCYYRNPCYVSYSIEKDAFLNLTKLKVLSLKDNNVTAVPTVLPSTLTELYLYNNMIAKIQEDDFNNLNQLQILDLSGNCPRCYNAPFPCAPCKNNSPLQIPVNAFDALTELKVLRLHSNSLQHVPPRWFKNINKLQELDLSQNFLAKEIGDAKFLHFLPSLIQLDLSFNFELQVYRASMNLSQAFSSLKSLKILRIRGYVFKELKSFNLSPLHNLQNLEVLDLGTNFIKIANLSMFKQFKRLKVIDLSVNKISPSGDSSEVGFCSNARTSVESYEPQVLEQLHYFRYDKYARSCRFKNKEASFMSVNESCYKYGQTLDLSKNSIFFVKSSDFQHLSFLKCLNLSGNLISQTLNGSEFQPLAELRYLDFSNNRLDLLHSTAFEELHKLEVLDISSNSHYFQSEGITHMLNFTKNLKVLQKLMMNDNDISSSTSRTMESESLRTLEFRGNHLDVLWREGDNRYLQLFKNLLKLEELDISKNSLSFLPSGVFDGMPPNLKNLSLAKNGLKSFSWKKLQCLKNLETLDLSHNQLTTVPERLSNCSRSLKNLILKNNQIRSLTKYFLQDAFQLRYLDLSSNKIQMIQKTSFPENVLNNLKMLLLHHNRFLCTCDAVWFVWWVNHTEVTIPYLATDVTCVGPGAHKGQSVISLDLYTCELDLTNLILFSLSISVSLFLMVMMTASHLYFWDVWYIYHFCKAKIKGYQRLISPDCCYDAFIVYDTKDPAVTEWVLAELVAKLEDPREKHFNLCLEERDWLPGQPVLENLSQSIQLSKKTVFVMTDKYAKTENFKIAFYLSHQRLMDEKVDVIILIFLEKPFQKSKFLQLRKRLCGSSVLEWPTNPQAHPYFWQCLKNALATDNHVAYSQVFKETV
Kind of test: HEK293-Blue-hTLR-7 cells assay. The test is classed as cell-based. The note with it: HEK293-Blue-hTLR7 cells, R848 stimulation, 20 hrs, SEAP reporter; read-out: HEK/hTLR7 IC50. As to the method:
The following tests were carried out in order to determine the activity of the compounds of formula (I) and (Ia) in HEK293-Blue-hTLR-7/8/9 cells assay.
HEK293-Blue-hTLR-7 cells assay:
A stable HEK293-Blue-hTLR-7 cell line was purchased from InvivoGen (Cat. #: hkb-htlr7, San Diego, Calif., USA). These cells were originally designed for studying the stimulation of human TLR7 by monitoring the activation of NF-κB. A SEAP (secreted embryonic alkaline phosphatase) reporter gene was placed under the control of the […] minimal promoter fused to five NF-κB and AP-1-binding sites. The SEAP was induced by activating NF-κB and AP-1 via stimulating HEK-Blue hTLR7 cells with TLR7 ligands. Therefore, the reporter expression was declined by TLR7 antagonist under the stimulation of a ligand, such as R848 (Resiquimod), for incubation of 20 hrs. The cell culture supernatant SEAP reporter activity was determined using QUANTI-Blue™ kit (Cat. #: rep-qb1, Invivogen, San Diego, Calif., USA) at a wavelength of 640 nm, a detection medium that turns purple or blue in the presence of alkaline phosphatase.
Then 20 μL of the supernatant from each well was incubated with […] Quanti-blue substrate solution at 37° C. for 2 hrs and the absorbance was read at 620-655 nm using a spectrophotometer. The signaling pathway that TLR7 activation leads to downstream NF-κB activation has been widely accepted, and therefore similar reporter assay was modified for evaluating TLR7 antagonist.

Text for human TLR8: HEK293-Blue-hTLR-8 Cells Assay:
A stable HEK293-Blue-hTLR-8 cell line was purchased from InvivoGen (Cat. #: hkb-htlr8, San Diego, Calif., USA). These cells were originally designed for studying the stimulation of human TLR8 by monitoring the activation of NF-κB. A SEAP (secreted embryonic alkaline phosphatase) reporter gene was placed under the control of the IFN-β minimal promoter fused to five NF-κB and AP-1-binding sites. The SEAP was induced by activating NF-κB and AP-1 via stimulating HEK-Blue hTLR8 cells with TLR8 ligands. Therefore, the reporter expression was declined by TLR8 antagonist under the stimulation of a ligand, such as R848, for incubation of 20 hrs. The cell culture supernatant SEAP reporter activity was determined using QUANTI-Blue™ kit (Cat. #: rep-qb1, Invivogen, San Diego, Calif., USA) at a wavelength of 640 nm, a detection medium that turns purple or blue in the presence of alkaline phosphatase.

As to `C[C@@H]1CN(c2ccc(C#N)c3ncccc23)C[C@@H]2CN(CCc3ccc(N4CCNCC4)nc3)CCN21` [Example 11, 5-[(4R,9aS)-4-methyl-8-[2-(6-piperazin-1-yl-3-pyridyl)ethyl]-3,4,6,7,9,9a-hexahydro-1H-pyrazino[1,2-a]pyrazin-2-yl]quinoline-8-carbonitrile], the IC50 stood at 21 nM against human TLR8 and 7 nM on human TLR7.

Take `C[C@@H]1CN(c2ccc(C#N)c3ncccc23)C[C@@H]2CN(CCc3ccc(N4CC(C)(N)C4)nc3)CCN21` [Example 65, 5-[(4R,9aS)-8-[2-[6-(3-amino-3-methyl-azetidin-1-yl)-3-pyridyl]ethyl]-4-methyl-3,4,6,7,9,9a-hexahydro-1H-pyrazino[1,2-a]pyrazin-2-yl]quinoline-8-carbonitrile]: the IC50 at human TLR8 came to 28 nM; at human TLR7, 19 nM.

As to `C[C@@H]1CN(c2ccc(C#N)c3ncccc23)C[C@@H]2CN(Cc3ccc(N4CCNCC4)nc3)CCN21` [Example 8, 5-[(4R,9aS)-4-methyl-8-[(6-piperazin-1-yl-3-pyridyl)methyl]-3,4,6,7,9,9a-hexahydro-1H-pyrazino[1,2-a]pyrazin-2-yl]quinoline-8-carbonitrile], the IC50 amounted to 52 nM against human TLR8 and 22 nM at human TLR7.

For `C[C@@H]1CN(c2ccc(C#N)c3ncccc23)C[C@@H]2CN(CCc3cccc(N4CCN[C@@H](C)C4)n3)CCN21` [Example 21, 5-[(4R,9aS)-4-methyl-8-[2-[6-[(3S)-3-methylpiperazin-1-yl]-2-pyridyl]ethyl]-3,4,6,7,9,9a-hexahydro-1H-pyrazino[1,2-a]pyrazin-2-yl]quinoline-8-carbonitrile], the IC50 against human TLR8 was 53 nM; on human TLR7, 19 nM.

Turning to `CO[C@@H]1CN(c2ccc(CCN3CCN4[C@@H](C3)CN(c3ccc(C#N)n5ncc(F)c35)C[C@H]4C)cc2)C[C@H]1N` [Example 66, 4-[(4R,9aS)-8-[2-[4-[(3R,4R)-3-amino-4-methoxy-pyrrolidin-1-yl]phenyl]ethyl]-4-methyl-3,4,6,7,9,9a-hexahydro-1H-pyrazino[1,2-a]pyrazin-2-yl]-3-fluoro-pyrazolo[1,5-a]pyridine-7-carbonitrile], the values for the IC50 against human TLR8 and at human TLR7 were 39 nM and 62 nM, respectively.

`CO[C@@H]1CN(c2ccc(CCN3CCN4[C@@H](C3)CN(c3ccc(C#N)n5nccc35)C[C@H]4C)cc2)C[C@H]1N` [Example 68, 4-[(4R,9aS)-8-[2-[4-[(3R,4R)-3-amino-4-methoxy-pyrrolidin-1-yl]phenyl]ethyl]-4-methyl-3,4,6,7,9,9a-hexahydro-1H-pyrazino[1,2-a]pyrazin-2-yl]pyrazolo[1,5-a]pyridine-7-carbonitrile]: the IC50 on human TLR8 stood at 77 nM; on human TLR7 it was 53 nM.

For `Cc1cc(N2CCOC[C@H](N)C2)ncc1N1CCN2CCN(c3ccc(C#N)c4ncccc34)CC2C1` (stereo partly drawn) [Example 46, 5-[2-[6-[(6R)-6-amino-1,4-oxazepan-4-yl]-4-methyl-3-pyridyl]-3,4,6,7,9,9a-hexahydro-1H-pyrazino[1,2-a]pyrazin-8-yl]quinoline-8-carbonitrile], the results for the IC50 on human TLR8 and on human TLR7 were 13 nM and 14 nM, respectively.

In the case of `C[C@@H]1CN(c2ccc(C#N)c3ncccc23)C[C@@H]2CN(Cc3ccc(N4CCCNCC4)nc3)CCN21` [Example 15, 5-[(4R,9aS)-8-[[6-(1,4-diazepan-1-yl)-3-pyridyl]methyl]-4-methyl-3,4,6,7,9,9a-hexahydro-JH-pyrazino[1,2-a]pyrazin-2-yl]quinoline-8-carbonitrile], the IC50 at human TLR8 was found to be 28 nM; on human TLR7, 49 nM.

For `[2H]c1ccc2c(N3C[C@@H]4CN(c5ccc(N6CC7CCC(C6)N7)nc5)CCN4[C@@H](C)C3)ccc(C#N)c2n1` [Example 112, 5-[(4S,9aR)-8-[6-(3,8-diazabicyclo[3.2.1]octan-3-yl)-3-pyridyl]-4-methyl-3,4,6,7,9,9a-hexahydro-1H-pyrazino[1,2-a]pyrazin-2-yl]-2-deuterio-quinoline-8-carbonitrile], the values for the IC50 against human TLR8 and on human TLR7 were 10 nM and 4 nM, respectively.

Take `CO[C@@H]1CN(c2ccc(CCN3CCN4[C@@H](C3)CN(c3ccc(C#N)n5ncc(F)c35)C[C@H]4C)cn2)C[C@H]1N` [Example 67, 4-[(4R,9aS)-8-[2-[6-[(3R,4R)-3-amino-4-methoxy-pyrrolidin-1-yl]-3-pyridyl]ethyl]-4-methyl-3,4,6,7,9,9a-hexahydro-1H-pyrazino[1,2-a]pyrazin-2-yl]-3-fluoro-pyrazolo[1,5-a]pyridine-7-carbonitrile]: the IC50 on human TLR8 worked out at 84 nM; on human TLR7, 65 nM.

On to `C[C@@H]1CN(c2ccc(C#N)c3ncccc23)C[C@@H]2CN(c3ccnc(N4CCNCC4)n3)CCN21` [Example 33, 5-[(4R,9aR)-4-methyl-8-(2-piperazin-1-ylpyrimidin-4-yl)-3,4,6,7,9,9a-hexahydro-1H-pyrazino[1,2-a]pyrazin-2-yl]quinoline-8-carbonitrile], for which the IC50 is 8 nM against human TLR8 and 10 nM on human TLR7.

With `[2H]c1ccc2c(N3C[C@@H]4CN(c5ccc(N6C[C@@H](N)[C@H](OC)C6)nc5)CCN4[C@@H](C)C3)ccc(C#N)c2n1` [Example 115, 5-[(4S,9aR)-8-[6-[(3R,4R)-3-amino-4-methoxy-pyrrolidin-1-yl]-3-pyridyl]-4-methyl-3,4,6,7,9,9a-hexahydro-1H-pyrazino[1,2-a]pyrazin-2-yl]-2-deuterio-quinoline-8-carbonitrile], the IC50 against human TLR8 is 17 nM; at human TLR7 it was 10 nM.

`C[C@@H]1CN(c2ccc(C#N)c3ncccc23)C[C@@H]2CN(c3cc(N4CCNCC4)ccn3)CCN21` [Example 34, 5-[(4R,9aR)-4-methyl-8-(4-piperazin-1-yl-2-pyridyl)-3,4,6,7,9,9a-hexahydro-1H-pyrazino[1,2-a]pyrazin-2-yl]quinoline-8-carbonitrile]: the IC50 was found to be 14 nM at human TLR8 and 20 nM at human TLR7.
